Among the data in patent US9227971B2, “Pyrazolo[1,5-a]pyrimidine compounds as mTOR inhibitors” (Merck Sharp & Dohme Corp., priority 2010, dated 2016) are IC50 values, retold here.

Assay [1] relates to phosphorylated AKT Ser473 (pAKT S473), mTORC2 activity, PC3 cells. Kind of assay: mTOR target engagement assay, immunofluorescent cell-based, pAKT S473 readout (mTORC2 activity). The essentials: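 After blocking, cells were stained overnight at 4 °C with anti-pAKT S473 antibody, then a fluorescent secondary; inhibition was read as reduced fluorescence intensity.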
In assay [2] the test system is phosphorylated 4E-BP1 Thr37/46 (p4E-BP1 Thr37/46), mTORC1 activity, PC3 cells. Briefly: mTOR target engagement assay, immunofluorescent cell-based, p4E-BP1 Thr37/46 readout (mTORC1 activity). To be noted: read-out: p4E-BP1 Thr37/46 IC50. The method, boiled down:
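Cell-based immunofluorescence in PC3 cells: serially diluted compounds (0.25% DMSO, 5% FBS) applied for ninety minutes at 37° C before fixation and overnight 4° C staining of p4E-BP1 Thr37/46. Untreated DMSO wells set maximal phosphorylation; IC50 obtained by logistic fitting.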

Where [3] appears, read: Homo sapiens, PC-3, Table 7-8, PC3 cells.
[4] abbreviates: Homo sapiens, PC-3, PC3 cells, compound treatment ninety minutes at 37° C.
Setting [5] is: Homo sapiens, PC-3, Table 3-1, PC3 cells.

Read-outs that look alike come from different tables or passages of the source.

On to `Nc1c(Br)c([C@@H]2C[C@H]3CC[C@@H](C2)N3C(=O)c2nnc[nH]2)nc2c(-c3ccc(C4(O)CCC4)nc3)cnn12` [Compound 7.42, ((1R,3s,5S)-3-(7-amino-6-bromo-3-(6-(1-hydroxycyclobutyl)pyridin-3-yl)pyrazolo[1,5-a]pyrimidin-5-yl)-8-azabicyclo[3.2.1]octan-8-yl)(4H-1,2,4-triazol-3-yl)methanone], for which the IC50 in assay [1] (setting [3]) lay in the range of 1000 to 10000 nM; in assay [2] (setting [3]), 100 to 1000 nM.
As for `CC(=O)c1c([C@@H]2C[C@H]3CC[C@@H](C2)N3C(=O)c2cc(N)n[nH]2)nc2c(-c3ccc(-c4ccc(F)cc4)nc3)cnn2c1N` [Compound 1.1.156, 1-(7-amino-5-((1R,3s,5S)-8-(3-amino-1H-pyrazole-5-carbonyl)-8-azabicyclo[3.2.1]octan-3-yl)-3-(6-(4-fluorophenyl)pyridin-3-yl)pyrazolo[1,5-a]pyrimidin-6-yl)ethanone], the IC50 in assay [1] (setting [4]) and in assay [2] (setting [4]) was 1 to 100 nM each time.
In the case of `CC(=O)c1c([C@@H]2C[C@H]3CC[C@@H](C2)N3C(=O)c2nnc[nH]2)nc2c(-c3ccc(-c4c(F)cccc4F)nc3)cnn2c1N` [Compound 1.1.147, 1-(5-((1R,3s,5S)-8-(4H-1,2,4-triazole-3-carbonyl)-8-azabicyclo[3.2.1]octan-3-yl)-7-amino-3-(6-(2,6-difluorophenyl)pyridin-3-yl)pyrazolo[1,5-a]pyrimidin-6-yl)ethanone], the IC50 in assay [1] (setting [4]) and in assay [2] (setting [4]) was 1 to 100 nM in each case.
With `Cc1cnc(-c2ccc(-c3cnn4c(N)c(S(C)(=O)=O)c([C@@H]5C[C@H]6CC[C@@H](C5)N6C(=O)CO)nc34)cn2)s1` [Compound 3.185, 1-((1R,3a,5S)-3-(7-amino-6-(methylsulfonyl)-3-(6-(5-methylthiazol-2-yl)pyridin-3-yl)pyrazolo[1,5-a]pyrimidin-5-yl)-8-azabicyclo[3.2.1]octan-8-yl)-2-hydroxyethanone], the IC50 in assay [1] (setting [5]) and in assay [2] (setting [5]) was 100 to 1000 nM throughout.
For `Cn1cnc(-c2ccc(-c3cnn4c(N)cc([C@@H]5C[C@H]6CC[C@@H](C5)N6C(=O)c5nnc[nH]5)nc34)cn2)n1` [Compound 2.10, ((1R,3s,5S)-3-(7-amino-3-(6-(1-methyl-1H-1,2,4-triazol-3-yl)pyridin-3-yl)pyrazolo[1,5-a]pyrimidin-5-yl)-8-azabicyclo[3.2.1]octan-8-yl)(4H-1,2,4-triazol-3-yl)methanone], the IC50 in assay [1] (setting [4]) and in assay [2] (setting [4]) was above 10000 nM each time.
`CS(=O)(=O)c1c([C@@H]2C[C@H]3CC[C@@H](C2)N3C(=O)CO)nc2c(-c3ccc(-c4ccccc4)nc3)cnn2c1N` [Compound 3.1, 1-((1R,3s,5S)-3-(7-amino-6-(methylsulfonyl)-3-(6-phenylpyridin-3-yl)pyrazolo[1,5-a]pyrimidin-5-yl)-8-azabicyclo[3.2.1]octan-8-yl)-2-hydroxyethanone]: the IC50 in assay [1] (setting [5]) was in the range of 1 to 100 nM; in assay [2] (setting [5]), 100 to 1000 nM.
As to `CC(=O)c1c([C@@H]2C[C@H]3CC[C@@H](C2)N3C(=O)CO)nc2c(-c3ccc(-c4ccc(F)cc4)nc3)cnn2c1N` [Compound 1.1.159, 1-((1R,3s,5S)-3-(6-acetyl-7-amino-3-(6-(4-fluorophenyl)pyridin-3-yl)pyrazolo[1,5-a]pyrimidin-5-yl)-8-azabicyclo[3.2.1]octan-8-yl)-2-hydroxyethanone], the IC50 in assay [1] (setting [4]) and in assay [2] (setting [4]) was 100 to 1000 nM throughout.
For the molecule `CC(=O)c1c([C@@H]2C[C@H]3CC[C@@H](C2)N3C(=O)c2nnc[nH]2)nc2c(-c3ccc(C(O)CC(C)C)nc3)cnn2c1N` (stereo partly drawn) [Compound 7.6, 1-(5-((1R,3s,5S)-8-(4H-1,2,4-triazole-3-carbonyl)-8-azabicyclo[3.2.1]octan-3-yl)-7-amino-3-(6-(1-hydroxy-3-methylbutyl)pyridin-3-yl)pyrazolo[1,5-a]pyrimidin-6-yl)ethanone], the IC50 in assay [1] (setting [4]) lay within 1000 to 10000 nM; in assay [2] (setting [4]), 100 to 1000 nM.
In the case of `CS(=O)(=O)c1c([C@H]2CC3CC[C@H](C2)N3C(=O)NO)nc2c(-c3ccc(-c4ccccc4)nc3)cnn2c1N` [Compound 3.172, (1R,3s,5S)-3-(7-amino-6-(methylsulfonyl)-3-(6-phenylpyridin-3-yl)pyrazolo[1,5-a]pyrimidin-5-yl)-N-hydroxy-8-azabicyclo[3.2.1]octane-8-carboxamide], the IC50 in assay [1] (setting [5]) fell in the range of 100 to 1000 nM; in assay [2] (setting [5]) it was 1 to 100 nM.
In the case of `CC(=O)c1c([C@@H]2C[C@H]3CC[C@@H](C2)N3C(=O)c2nnc[nH]2)nc2c(-c3cnc(C(C)(C)O)c(Cl)c3)cnn2c1N` [Compound 1.1.181, 1-(5-((1R,3s,5S)-8-(4H-1,2,4-triazole-3-carbonyl)-8-azabicyclo[3.2.1]octan-3-yl)-7-amino-3-(5-chloro-6-(2-hydroxypropan-2-yl)pyridin-3-yl)pyrazolo[1,5-a]pyrimidin-6-yl)ethanone], the IC50 in assay [1] (setting [4]) and in assay [2] (setting [4]) was 1 to 100 nM throughout.
`CS(=O)(=O)c1c([C@@H]2C[C@H]3CC[C@@H](C2)N3C(=O)c2cc(N)n[nH]2)nc2c(-c3ccc(-c4ccc(F)cc4)nc3)cnn2c1N` [Compound 3.120, (3-amino-1H-pyrazol-5-yl)((1R,3s,5S)-3-(7-amino-3-(6-(4-fluorophenyl)pyridin-3-yl)-6-(methylsulfonyl)pyrazolo[1,5-a]pyrimidin-5-yl)-8-azabicyclo[3.2.1]octan-8-yl)methanone]: the IC50 in assay [1] (Table 3-1, PC3 cells) lay within 1 to 100 nM; in assay [2] (Table 3-1, PC3 cells), 1 to 100 nM.
In the case of `CC(=O)N1[C@@H]2CC[C@H]1C[C@H](c1nc3c(-c4ccc(-c5nc(C)cs5)nc4)cnn3c(N)c1S(C)(=O)=O)C2` [Compound 3.190, 1-((1R,3a,5S)-3-(7-amino-6-(methylsulfonyl)-3-(6-(4-methylthiazol-2-yl)pyridin-3-yl)pyrazolo[1,5-a]pyrimidin-5-yl)-8-azabicyclo[3.2.1]octan-8-yl)ethanone], the IC50 in assay [1] (setting [5]) and in assay [2] (setting [5]) was 1000 to 10000 nM throughout.
On to `Cc1n[nH]c(C(=O)N2[C@@H]3CC[C@H]2C[C@H](c2nc4c(-c5ccc(-c6ccccc6)nc5)cnn4c(N)c2S(C)(=O)=O)C3)n1` [Compound 3.4, ((1R,3s,5S)-3-(7-amino-6-(methylsulfonyl)-3-(6-phenylpyridin-3-yl)pyrazolo[1,5-a]pyrimidin-5-yl)-8-azabicyclo[3.2.1]octan-8-yl)(3-methyl-1H-1,2,4-triazol-5-yl)methanone], for which the IC50 in assay [1] (setting [5]) and in assay [2] (setting [5]) was 1 to 100 nM each time.
Regarding `CC(=O)c1c([C@@H]2C[C@H]3CC[C@@H](C2)N3C(=O)CO)nc2c(-c3ccc(-c4nn(C)cc4F)nc3)cnn2c1N` [Compound 1.1.94, 1-((1R,3s,5S)-3-(6-acetyl-7-amino-3-(6-(4-fluoro-1-methyl-1H-pyrazol-3-yl)pyridin-3-yl)pyrazolo[1,5-a]pyrimidin-5-yl)-8-azabicyclo[3.2.1]octan-8-yl)-2-hydroxyethanone], the IC50 in assay [1] (setting [4]) and in assay [2] (setting [4]) was 100 to 1000 nM each time.
As for `CCn1ccc(-c2ccc(-c3cnn4c(N)c(C(C)=O)c([C@@H]5C[C@H]6CC[C@@H](C5)N6C(=O)c5nnc[nH]5)nc34)cn2)n1` [Compound 1.1.138, 1-(5-((1R,3s,5S)-8-(4H-1,2,4-triazole-3-carbonyl)-8-azabicyclo[3.2.1]octan-3-yl)-7-amino-3-(6-(1-ethyl-1H-pyrazol-3-yl)pyridin-3-yl)pyrazolo[1,5-a]pyrimidin-6-yl)ethanone], the IC50 in assay [1] (setting [4]) and in assay [2] (setting [4]) was 1 to 100 nM each time.
Consider `CS(=O)(=O)c1c([C@@H]2C[C@H]3CC[C@@H](C2)N3C(=O)c2cc(O)ccn2)nc2c(-c3ccc(-c4ccccc4)nc3)cnn2c1N` [Compound 3.14, ((1R,3s,5S)-3-(7-amino-6-(methylsulfonyl)-3-(6-phenylpyridin-3-yl)pyrazolo[1,5-a]pyrimidin-5-yl)-8-azabicyclo[3.2.1]octan-8-yl)(4-hydroxypyridin-2-yl)methanone], for which the IC50 in assay [1] (setting [5]) lay within 100 to 1000 nM; in assay [2] (setting [5]), 1000 to 10000 nM.
The corresponding values for `CS(=O)(=O)c1c([C@@H]2C[C@H]3CC[C@@H](C2)N3c2nnn[nH]2)nc2c(-c3ccc(-c4ccccc4)nc3)cnn2c1N` [Compound 3.18, 5-((1R,3s,5S)-8-(1H-tetrazol-5-yl)-8-azabicyclo[3.2.1]octan-3-yl)-6-(methylsulfonyl)-3-(6-phenylpyridin-3-yl)pyrazolo[1,5-a]pyrimidin-7-amine] are above 10000 nM and above 10000 nM.
In the case of `CC(=O)c1c([C@@H]2C[C@H]3CC[C@@H](C2)N3C(=O)c2nc[nH]n2)nc2c(-c3ccc(C(C)O)cc3)cnn2c1N` (stereo partly drawn) [Compound 7.20, 1-(5-((1R,3s,5S)-8-(1H-1,2,4-triazole-3-carbonyl)-8-azabicyclo[3.2.1]octan-3-yl)-7-amino-3-(4-(1-hydroxyethyl)phenyl)pyrazolo[1,5-a]pyrimidin-6-yl)ethanone], the IC50 in assay [1] (setting [4]) and in assay [2] (setting [4]) was 1 to 100 nM throughout.
On to `COCCOCC(=O)N1[C@@H]2CC[C@H]1C[C@H](c1nc3c(-c4ccc(-c5ccccc5)nc4)cnn3c(N)c1S(C)(=O)=O)C2` [Compound 3.72, 1-((1R,3s,5S)-3-(7-amino-6-(methylsulfonyl)-3-(6-phenylpyridin-3-yl)pyrazolo[1,5-a]pyrimidin-5-yl)-8-azabicyclo[3.2.1]octan-8-yl)-2-(2-methoxyethoxy)ethanone], for which the IC50 in assay [1] (setting [5]) and in assay [2] (setting [5]) was 1000 to 10000 nM each time.
